{
  "source": "patent US20170368134A1",
  "about": "“PROTEASOME INHIBITORS FOR TREATING A DISORDER RELATED TO AN ACCUMULATION OF NON-DEGRADED ABNORMAL PROTEIN OR A CANCER” (UNIVERSITÉ D'AIX-MARSEILLE, priority 2015, published 2017)",
  "key": {"[1]": {"tested_on": "lamin A mRNA", "experiment": "qRT-PCR of lamin A transcripts in HGPS cells", "format": "cell-based, human", "settings": "10 μM MG132 time-course", "protocol": "(§1) Total RNA was isolated using the RNeasy plus extraction kit (Qiagen, Valencia, Calif.). 1 μg of RNA was reverse transcribed using the High Capacity cDNA Reverse Transcription Kit (Applied Biosystems). Real time PCR amplification was carried out with the TaqMan® Gene Expression Master Mix (Applied Biosystems) on a LightCycler 480 (Roche, Germany) using pre-designed primers for GAPDH (Hs00266705_g1), Progerin (F: […] (SEQ ID NO:3) R: […] (SEQ ID NO:4) and probe: […] (SEQ ID NO:5)), Lamin A (F: […] (SEQ ID NO:6) R: […] (SEQ ID NO:7) and probe: […] (SEQ ID NO:8)) and lamin C (F: […] (SEQ ID NO:9) R: […] (SEQ ID NO:10) and probe: […] (SEQ ID NO:11)) (Applied Biosystems) using the program: UNG incubation at 50° C. for 2 minutes, initial denaturation at 95° C. for 10 minutes, 40 cycles of amplification: denaturation at 95° C. for 15 seconds and annealing at 60° C. for 1 minute. All PCR reactions were performed in triplicate. Threshold cycle (Ct) values were used to calculate relative mRNA expression by the 2-ΔΔ^T relative quantification method with normalization to GAPDH expression."}, "[2]": {"tested_on": "wild-type first instar larvae", "experiment": "Toxicity of MG132 fed to Drosophila larvae", "format": "in vivo", "settings": "600 μM MG132 (in 0.2% DMSO) in the fly medium, 25° C.", "protocol": "(A) The toxicity of MG132 fed to larvae was determined by transferring 80 wild-type first instar larvae into vials containing 5 ml of instant Drosophila medium reconstituted either with increasing concentrations of drug in DMSO, or DMSO alone.\nDrug supplemented food was prepared as follows. Instant Drosophila medium (Carolina Biological Supply Company) was reconstituted in each vial with a solution of 1% yeast in water, supplemented with either increasing concentrations of drug solubilized in DMSO (dimethyl sulfoxide), or DMSO alone. MG132 was purchased from Santa Cruz Biotechnology (SC-201270). Each vial contained 5 ml or 2.5 ml of reconstituted medium, to raise larvae or adults, respectively. Individuals were fed with the drug from larval stages. 70 to 80 first instar larvae were transferred per vial and developed in the same vial up to adulthood; adults were transferred in a new vial with the same concentration of drug. To determine drug toxicity, 80 first instar larvae were transferred into vials containing drug- or DMSO alone-supplemented medium. Individuals reaching adulthood were scored. Abnormal wing posture was quantified by collecting adult males at birth, pooling five males per vial and scoring abnormal wing position each day by direct observation of the flies through the vials, without anesthesia."}, "[3]": {"tested_on": "lamin C", "experiment": "Western blot of lamin C protein in HGPS fibroblasts", "format": "cell-based, human", "settings": "48 h treatment with MG132 (10 μM)", "protocol": "Total fibroblast proteins were extracted in 200 μL of NP40 Cell Lysis buffer (Invitrogen, Carlsbad, Calif.) containing Protease and Phosphatase Inhibitor Cocktail (Thermo Scientific). Alternatively, cells were lysed with urea (8 M urea, 5 mM dithiothreitol, 150 mM NaCl, 50 mM Tris-Cl pH 7.5, protease and phosphatase Inhibitor Cocktail (Thermo Scientific)). Cells were sonicated twice (30 sec each), incubated at 4° C. for 30 minutes and then centrifuged at 10,000 g for 10 minutes. Protein concentration was evaluated with the bicinchoninic acid technique (Pierce BCA Protein Assay Kit), absorbance at 562 nm is measured using nanodrop 1000 (Thermo Fisher Scientific Inc.) Equal amounts of proteins (40 μg) were loaded onto 10% Tis-Glycine gel (Criterion™ XT precast gel) using XT Tricine running Buffer (Biorad, USA). After electrophoresis, gels were electro transferred onto nitrocellulose membranes or Immobilon-FL polyvinylidene fluoride membranes (Millipore), blocked in Odyssey Blocking Buffer diluted 1:1 in PBS for 1 hour at room temperature, and incubated overnight at 4° C. or 2 hours at room temperature with various primary antibodies. […]"}, "[4]": {"tested_on": "lamin C mRNA", "experiment": "qRT-PCR of lamin C transcripts in HGPS cells", "format": "cell-based, human", "settings": "10 μM MG132 time-course", "protocol": "as §1"}, "[5]": {"tested_on": "progerin mRNA", "experiment": "qRT-PCR of progerin transcripts in HGPS fibroblasts", "format": "cell-based, human", "settings": "10 μM MG132, time dependent, relative to DMSO", "protocol": "as §1"}, "[6]": {"tested_on": "progerin", "experiment": "Progerin levels in HGPS iPS-derived MSC and VSMC", "format": "cell-based, human", "settings": "data not shown", "protocol": "Generation of induced pluripotent stem cells (iPS) by reprogramming was carried out using fibroblasts isolated from HGPS patient biopsies performed in the Assistance Publique Hopitaux de Marseille (13-8243) or provided by Coriell Institute (Camden, USA) (AG01972). Cell lines were reprogrammed to iPSC using Yamanaka's original method based on retrovirus-mediated transfection of four transcription factors, namely Oct3/4, Sox2, c-Myc, and Klf4 (41). The iPSC lines were amplified up to the 15th passage before differentiation.\nHGPS iPSC were grown on STO mouse fibroblasts, inactivated with […] mitomycin C, seeded at 30,000/cm2 and grown as previously described (42). For differentiation, iPSC were differentiated into mesenchymal stem cells (MSC-iPSC) using directed protocols for differentiation previously published (43-45). VSMC were obtained from iPSC by fluorescent-activated cell sorting (FACS) separation of CD31+ cells (46).\nTo determine whether MG132 also influences the level of progerin in other cell lineages, the inventors generated iPSC from HGPS patients' fibroblasts. Mesenchymal Stem Cells (MSC) and Vascular Smooth Muscle Cells (VSMC) derived from HGPS iPSC presented the commonly described abnormalities of HGPS fibroblasts, namely, loss of proliferation capacities, premature senescence and nuclear blebbing (69, 70). […]"}, "[7]": {"tested_on": "HGPS fibroblasts, HGPS derived iPS-MSC or iPS-VSMC", "experiment": "CellTiter-Glo Luminescent Cell Viability Assay", "format": "cell-based, human", "settings": "24 h, doses used in this study", "protocol": "HGPS fibroblasts, HGPS derived iPS-MSC or iPS-VSMC viability was measured at 24 h post treatment with MG132 at the indicated concentrations using CellTiter-Glo Luminescent Cell Viability Assay. Results are reported as viability percentage of MG132-treated cells relative to untreated cells."}},
  "note": "Peptide text beside a SMILES is read from it. * marks the point of attachment. Cbz = O=C(OCc1ccccc1)*",
  "data": [
    {"smiles": "CC(C)C[C@@H](C=O)NC(=O)[C@H](CC(C)C)NC(=O)[C@H](CC(C)C)NC(=O)OCc1ccccc1", "note": "[MG132, Z-Leu-Leu-Leu-al] (Cbz-Leu-Leu-Leu-aldehyde)", "values": [
      {"measurement": "lamin A transcript levels", "setting": "[1]", "result": "significant decrease of lamin A transcripts"},
      {"measurement": "viability (flies reaching adulthood)", "setting": "[2]", "result": "not detrimental for viability"},
      {"measurement": "lamin C protein levels", "setting": "[3]", "result": "increased"},
      {"measurement": "lamin C transcript levels", "setting": "[4]", "result": "much less pronounced decrease of lamin C transcript levels"},
      {"measurement": "progerin mRNA expression", "setting": "[5]", "result": "almost extinguished progerin mRNA expression"},
      {"measurement": "progerin levels", "setting": "[6]; HGPS fibroblasts, iPS-MSC and iPS-VSMC", "result": "decreased"},
      {"measurement": "concentration from which progerin reduction is significant", "setting": "[6]; iPS-VSMC, progerin immunostaining", "result": "≥ 1.25", "unit": "µM"},
      {"measurement": "viability / mortality", "setting": "[7]", "result": "do not induce significant mortality"}
    ]}
  ]
}
